Data reported in US20160222014A1, “COMPOUNDS FOR REGULATING FAK AND/OR SRC PATHWAYS” (ASANA BIOSCIENCES, LLC, priority 2013, published 2016).
pIC50: −log10 of the molar value.

Legend:
Phospho Src(Y416) = target: T1, Phospho Src(Y416) (Homo sapiens, UniProt P12931); assay: Phospho Src(Y416) Sandwich ELISA; assay type: cell-based; details: Panc1; read-out: pSrc EC50 (μM) Panc1
T1 construct: endogenous in cells; host or cells: Panc1
Experimental: E. Phospho Src(Y416) Sandwich ELISA
Phospho Src(Y416) Sandwich ELISA kit was obtained from Cell Signaling Tech.
(i) Reagent Preparation • 1. All microwell strips were brought to rt before use. • 2. 1× Wash Buffer was prepared by diluting 20× Wash Buffer (included in each PathScan® Sandwich ELISA Kit) in MilliQ® water or equivalently purified water. • 3. 1× Cell Lysis Buffer from CST #9803: 20 mM Tris (pH 7.5), 150 mM NaCl, 1 mM ethylene diamine tetraacetate (EDTA), 1 mM ethylene glycol-bis(2-aminoethyl)-N,N,N′,N′-tetraacetic acid (EGTA), 1% Triton™ X-100, 2.5 mM sodium pyrophosphate, 1 mM b-glycerophosphate, 1 mM Na3VO4, 1 μg/mL leupeptin. This buffer was stored at 4° C. for short-term use (1-2 weeks).
(ii) Preparing Cell Lysates • 1. The media was aspirated. The cells were treated by adding fresh media containing inhibitor for 1 h. The compound of Example 214 was used as reference. • 2. The cells were harvested under non-denaturing conditions by removing media and rinsing cells once with ice-cold PBS. • 3. PBS was removed, 0.5 mL ice-cold 1× Cell Lysis Buffer plus 1 mM phenylmethylsulfonylfluoride (PMSF) was added to each plate (10 cm in diameter) and the plate incubated on ice for 5 min. • 4. The cells were scraped off of the plate, transferred to an appropriate tube, and kept on ice. • 5. The lysates were sonicated on ice. • 6. Microcentrifugation was performed for 10 min at 4° C. and the supernatant transferred to a new tube. The supernatant was the cell lysate and was stored at −80° C. in single-use aliquots.
(iii) Test Procedure • 1. After the microwell strips reached rt, the required number of microwells were broken off. The microwells were placed in the strip holder. Unused microwells were resealed and stored at 4° C. immediately. • 2. 100 μL of Sample Diluent (supplied in each PathScan® Sandwich ELISA Kit, blue color) was added to a micro centrifuge tube. 100 μL of cell lysate was transferred into the tube and vortexed for a few seconds. […] Individual data sheets for each kit provided information regarding an appropriate dilution factor for lysates and kit assay results. However, dilution factors were titrated when specific cell lysates are used. • 3. 100 μL of each diluted cell lysate were added to the appropriate well. It was then sealed with tape and pressed firmly onto top of microwells. The plate was incubated for 2 h at 37° C. Alternatively, the plate was incubated overnight at 4° C., which gave the best detection of target protein. • 4. The tape was gently removed and the wells washed: • a. The plate contents were discarded into a receptacle. • b. Each well was washed 4 times with 1× Wash Buffer, 200 μL. • c. For each wash, plates were struck on fresh towels hard enough to remove the residual solution in each well, but wells were not allowed to completely dry at any time. • d. The underside of all wells was cleaned with a lint-free tissue. • 5. 100 μL of Detection Antibody (green color) was added to each well, sealed with tape and the plate incubated for 1 h at 37° C. • 6. The wash procedure was repeated as in Step 4. • 7. 100 μL of HRP-linked secondary antibody (red color) was added to each well, sealed with tape and the plate incubated plate for 30 min at 37° C. • 8. The wash procedure was repeated as in Step 4. • 9. 100 μL of TMB Substrate was added to each well, sealed with tape and the plate incubated for 10 min at 37° C. or 30 min at 25° C. • 10. 100 μL of STOP Solution was added to each well and shaken gently for a few seconds. Initial color of positive reaction was blue, which changed to yellow upon addition of STOP Solution. • 11. The results were read. • a. Visual Determination—read within 30 min after adding STOP Solution. • b. Spectrophotometric Determination—the underside of wells were wiped with a lint-free tissue and absorbance read at 450 nm within 30 min after adding STOP Solution.

Recombinant Src enzyme = target: T2, Recombinant Src enzyme (Homo sapiens, UniProt P12931); assay: Src HTRF assay; assay type: biochemical
T2 construct: purchased Millipore 14-326; host or cells: Sf21 insect cells
T2 sequence (P12931 whole entry): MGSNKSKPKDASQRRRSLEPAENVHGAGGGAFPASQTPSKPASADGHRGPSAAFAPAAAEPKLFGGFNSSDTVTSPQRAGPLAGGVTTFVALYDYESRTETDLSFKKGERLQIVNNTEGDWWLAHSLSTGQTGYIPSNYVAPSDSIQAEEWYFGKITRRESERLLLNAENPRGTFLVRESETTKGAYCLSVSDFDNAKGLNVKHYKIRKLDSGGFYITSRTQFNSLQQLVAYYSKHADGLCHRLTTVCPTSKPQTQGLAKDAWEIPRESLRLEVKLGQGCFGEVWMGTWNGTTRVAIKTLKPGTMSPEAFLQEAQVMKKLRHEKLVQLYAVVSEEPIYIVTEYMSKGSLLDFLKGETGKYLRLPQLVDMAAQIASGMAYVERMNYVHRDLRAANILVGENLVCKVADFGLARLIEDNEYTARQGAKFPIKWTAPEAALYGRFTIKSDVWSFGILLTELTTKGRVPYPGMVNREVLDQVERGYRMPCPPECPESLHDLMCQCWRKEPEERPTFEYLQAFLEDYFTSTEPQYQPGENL
Procedure, shortened: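 Run as for the FAK HTRF assay (same buffer, supplements, compound preparation and procedure), with dasatinib included. Reaction contained 0.5 μM biotin-tagged Tyk2 synthetic peptide, 5 nM Src made in Sf21 cells, and a pH7.4-buffer-prepared component at 10 μM final.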

AURKB (Aurora B) enzyme = target: T3, AURKB (Aurora B) enzyme (Homo sapiens, UniProt Q96GD4); assay: Aurora B HTRF assay; assay type: biochemical; details: read-out: AuroraB IC50
T3 construct: purchased Invitrogen PVR 130
T3 sequence (Q96GD4 whole entry): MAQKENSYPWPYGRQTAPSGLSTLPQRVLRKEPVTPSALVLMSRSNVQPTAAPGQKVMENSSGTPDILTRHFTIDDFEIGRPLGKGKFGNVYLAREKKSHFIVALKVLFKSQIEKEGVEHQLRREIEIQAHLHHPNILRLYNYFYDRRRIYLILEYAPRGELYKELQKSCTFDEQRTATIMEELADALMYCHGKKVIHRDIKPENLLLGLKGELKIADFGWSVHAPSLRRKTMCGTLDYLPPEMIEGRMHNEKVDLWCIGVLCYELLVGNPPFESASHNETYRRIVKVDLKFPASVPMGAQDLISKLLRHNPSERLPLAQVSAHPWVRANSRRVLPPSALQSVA
Procedure, shortened: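 Enzyme (5 nM final) and ULight-labelled PLK Ser137 peptide (50 nM) reacted 1 h at room temperature; a 30 μM final component was also present. Detection used EDTA-containing buffer with europium anti-phospho-PLK(Ser137) antibody at 2 nM, 1 h, then time-resolved FRET readout.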

recombinant human FAK1 = target: T4, recombinant human FAK1 (Homo sapiens, UniProt Q05397); assay: FAK1 HTRF assay; assay type: biochemical
T4 construct: fused on or other part: N-terminal 6xHis tag
T4 sequence (Q05397 422-680 limits assumed): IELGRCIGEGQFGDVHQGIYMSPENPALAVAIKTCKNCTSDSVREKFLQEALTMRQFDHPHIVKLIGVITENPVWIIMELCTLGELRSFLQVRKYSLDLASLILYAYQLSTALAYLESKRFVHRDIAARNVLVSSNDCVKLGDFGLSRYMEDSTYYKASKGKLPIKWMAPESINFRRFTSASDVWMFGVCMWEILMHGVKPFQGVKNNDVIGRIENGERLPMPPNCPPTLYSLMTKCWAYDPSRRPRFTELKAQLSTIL
Procedure, shortened: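 IC50 values derive from HTRF % inhibition (ratio 665/620 nm, Eu–anti-phosphotyrosine 0.1 nM, SA-APC 12 nM). The kinase step ran 45 min at room temperature, pairing 10 nM His-FAK1(692–end) from baculovirus with 0.5 μM gastrin Tyr87 biotin-peptide and a reagent at 10 μM final, pH 7.4. Compound dilutions began at 10 μM.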

[1] = target: T5, FAK phosphorylated at Y397 in HEK-FAK cell line overexpressing human FL FAK protein (Homo sapiens, UniProt Q05397); assay: Cell based assay, Phospho-FAK ELISA; details: HEK stb; read-out: pFAK EC50 (μM) HEK stb
T5 construct: expressed in transfected cells
T5 sequence (Q05397 whole entry): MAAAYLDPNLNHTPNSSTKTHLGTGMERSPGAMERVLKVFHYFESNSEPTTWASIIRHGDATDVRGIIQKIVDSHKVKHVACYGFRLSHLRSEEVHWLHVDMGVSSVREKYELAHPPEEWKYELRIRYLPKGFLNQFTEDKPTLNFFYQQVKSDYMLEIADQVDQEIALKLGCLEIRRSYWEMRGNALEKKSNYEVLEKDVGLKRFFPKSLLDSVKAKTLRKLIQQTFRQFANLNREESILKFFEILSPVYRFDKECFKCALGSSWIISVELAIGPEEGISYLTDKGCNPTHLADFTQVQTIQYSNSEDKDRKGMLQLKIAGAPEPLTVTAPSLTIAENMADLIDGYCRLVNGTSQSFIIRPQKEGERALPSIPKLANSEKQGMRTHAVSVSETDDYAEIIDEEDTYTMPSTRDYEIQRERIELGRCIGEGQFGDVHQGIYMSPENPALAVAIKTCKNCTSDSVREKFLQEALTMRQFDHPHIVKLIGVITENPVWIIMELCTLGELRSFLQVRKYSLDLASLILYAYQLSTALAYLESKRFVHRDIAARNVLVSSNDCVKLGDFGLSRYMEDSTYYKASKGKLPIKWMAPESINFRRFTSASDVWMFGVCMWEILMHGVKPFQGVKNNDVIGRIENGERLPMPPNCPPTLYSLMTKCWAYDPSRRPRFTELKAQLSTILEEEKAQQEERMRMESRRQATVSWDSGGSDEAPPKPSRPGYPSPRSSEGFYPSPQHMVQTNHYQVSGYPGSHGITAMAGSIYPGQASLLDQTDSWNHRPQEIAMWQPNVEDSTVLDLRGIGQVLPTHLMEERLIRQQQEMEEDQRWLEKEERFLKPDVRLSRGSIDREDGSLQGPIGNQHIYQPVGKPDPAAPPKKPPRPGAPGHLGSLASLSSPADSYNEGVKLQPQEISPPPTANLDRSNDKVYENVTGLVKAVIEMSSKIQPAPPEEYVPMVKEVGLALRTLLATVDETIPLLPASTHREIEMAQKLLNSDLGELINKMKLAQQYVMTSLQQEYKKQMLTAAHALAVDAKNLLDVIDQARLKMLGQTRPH
Procedure, shortened: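 Stable HEK293 line overexpressing full-length human FAK, kept under 0.8 mg/mL Zeocin. In lysates, FAK Y397 autophosphorylation was measured by sandwich ELISA: total-FAK capture antibody, biotinylated pY397-specific detection antibody, streptavidin-HRP with TMB substrate.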

JAK2 = JAK2 (Homo sapiens, UniProt O60674); assay: JAK2 biochemical potency; details: read-out: JAK2 HTRF IC50
Chain of JAK2 (O60674 whole entry, species assumed): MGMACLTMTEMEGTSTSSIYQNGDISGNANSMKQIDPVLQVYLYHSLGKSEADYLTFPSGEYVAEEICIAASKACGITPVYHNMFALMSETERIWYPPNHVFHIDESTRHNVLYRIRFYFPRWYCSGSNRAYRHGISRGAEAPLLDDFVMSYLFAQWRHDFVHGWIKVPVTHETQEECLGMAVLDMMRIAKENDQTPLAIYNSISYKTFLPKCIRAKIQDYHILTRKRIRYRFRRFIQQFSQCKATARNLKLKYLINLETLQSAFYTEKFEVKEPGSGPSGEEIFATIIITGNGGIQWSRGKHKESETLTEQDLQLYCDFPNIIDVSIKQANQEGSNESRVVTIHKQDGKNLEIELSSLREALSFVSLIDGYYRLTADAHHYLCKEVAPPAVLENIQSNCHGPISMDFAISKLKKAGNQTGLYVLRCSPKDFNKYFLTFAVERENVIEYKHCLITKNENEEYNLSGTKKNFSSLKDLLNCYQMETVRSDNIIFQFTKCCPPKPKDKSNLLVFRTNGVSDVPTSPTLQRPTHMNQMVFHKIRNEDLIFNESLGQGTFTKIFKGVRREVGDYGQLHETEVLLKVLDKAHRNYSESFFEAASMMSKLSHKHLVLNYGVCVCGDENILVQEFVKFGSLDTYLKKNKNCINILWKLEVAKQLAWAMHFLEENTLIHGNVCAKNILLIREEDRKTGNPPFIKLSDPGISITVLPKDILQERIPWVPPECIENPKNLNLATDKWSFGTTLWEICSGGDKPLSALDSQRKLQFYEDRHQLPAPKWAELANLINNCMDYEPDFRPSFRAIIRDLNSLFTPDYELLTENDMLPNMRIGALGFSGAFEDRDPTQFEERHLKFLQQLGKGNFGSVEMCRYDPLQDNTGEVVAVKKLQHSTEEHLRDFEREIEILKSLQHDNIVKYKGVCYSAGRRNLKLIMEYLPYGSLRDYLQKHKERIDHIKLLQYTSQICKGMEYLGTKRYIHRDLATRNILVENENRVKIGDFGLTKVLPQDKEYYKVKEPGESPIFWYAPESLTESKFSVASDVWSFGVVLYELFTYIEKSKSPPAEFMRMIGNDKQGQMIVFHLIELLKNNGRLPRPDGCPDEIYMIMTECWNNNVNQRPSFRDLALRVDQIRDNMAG

T1 sequence (P12931 whole entry): as the sequence (P12931 whole entry) above

Structure (SMILES) | EC50 (Phospho Src(Y416)) [µM] | pIC50 (Recombinant Src enzyme) | pIC50 (AURKB (Aurora B) enzyme) | pIC50 (recombinant human FAK1) | EC50 [1] [µM] | pIC50 (JAK2)
O=C1CCc2cc(Nc3cc4c(cn3)cnn4Cc3ccccc3OC(F)F)ccc2N1 [Example 65] | > 1 | > 7.70 | < 6.00 | – | – | –
CN(C)S(=O)(=O)c1ccccc1Cn1ccc2cnc(Nc3ccc4c(c3)CCC(=O)N4)nc21 [Example 137] | > 1 | – | > 7.70 | > 7.70 | – | –
O=C1CCc2cc(Nc3ncc4ccn(S(=O)(=O)c5ccccc5OC(F)F)c4n3)ccc2N1 [Example 151] | > 1 | – | – | > 7.70 | – | –
COc1ccccc1Nc1ncc2ccn(Cc3cccnc3N(C)S(C)(=O)=O)c2n1 [Example 154] | – | < 6.00 | < 6.00 | – | > 1 | < 6.00
CN(c1ncccc1Cn1ccc2cnc(Nc3cccc4ncccc34)nc21)S(C)(=O)=O [Example 160] | > 1 | < 6.00 | – | – | – | –
O=C1CCc2cc(Nc3ncc4ccn(S(=O)(=O)c5ccccc5Cl)c4n3)ccc2N1 [Example 199] | > 1 | – | > 7.70 | > 7.70 | – | –
O=S(=O)(c1ccccc1)n1ccc2cnc(Nc3ccc(N4CCNCC4)cc3)nc21 [Example 224] | – | > 7.70 | > 7.70 | – | > 1 | > 7.70
N#Cc1ccccc1S(=O)(=O)n1ccc2cnc(Nc3ccc(C4CCN(CC(N)=O)CC4)cc3)nc21 [Example 251] | > 1 | – | > 7.70 | – | – | –
O=S(=O)(c1ccccc1)n1ncc2cnc(Nc3ccc(N4CCNCC4)cc3)nc21 [Example 255] | < 0.02 | – | – | – | – | –
NC(=O)CN1CCC(c2ccc(Nc3ncc4ccn(S(=O)(=O)c5cccc6cccnc56)c4n3)cc2)CC1 [Example 256] | > 1 | – | > 7.70 | > 7.70 | – | –
Cn1cc(Nc2ncc3ccn(S(=O)(=O)c4ccccc4C#N)c3n2)cn1 [Example 317] | > 1 | – | – | – | > 1 | –
O=C(Nc1ccc(Nc2ncc3ccn(S(=O)(=O)c4cccc5cccnc45)c3n2)cc1)C1CC1 [Example 331] | > 1 | – | > 7.70 | > 7.70 | – | –
Cc1cc(Nc2cc3c(ccn3S(=O)(=O)c3cccc4cccnc34)cn2)ccc1N1CCNCC1 [Example 334] | > 1 | – | > 7.70 | > 7.70 | – | –
COc1ccccc1S(=O)(=O)n1ccc2cnc(Nc3ccc(N4CCN(C(=O)C5CC5)CC4)cc3)nc21 [Example 350] | > 1 | – | – | > 7.70 | – | –
Cc1cc(Nc2ncc3cnn(S(=O)(=O)c4cccc5cccnc45)c3n2)ccc1N1CCC(O)CC1 [Example 406] | > 1 | – | – | > 7.70 | – | –
CN(c1ncccc1Cn1ccc2cnc(Nc3ccc(N4CCN5C(=O)CCC5C4)cc3)nc21)S(C)(=O)=O (stereo not drawn) [Example 408] | > 1 | – | > 7.70 | – | – | –
O=S(=O)(c1cccc2cccnc12)n1ncc2cnc(Nc3ccc(N4CCC(O)CC4)cc3)nc21 [Example 411] | > 1 | – | – | > 7.70 | – | –
COC1CCN(c2ccc(Nc3ncc4ccn(S(=O)(=O)c5cccc6cccnc56)c4n3)cc2)CC1 [Example 412] | > 1 | – | > 7.70 | > 7.70 | – | –

Structure (SMILES) | EC50 (Phospho Src(Y416)) [µM] | pIC50 (Recombinant Src enzyme) | pIC50 (AURKB (Aurora B) enzyme) | pIC50 (recombinant human FAK1) | EC50 [1] [µM] | pIC50 (JAK2)
COc1cc(Nc2ncc3ccn(S(=O)(=O)c4cccc5cccnc45)c3n2)ccc1N1CCOCC1 [Example 432] | > 1 | – | – | > 7.70 | – | –
CN(c1ccccc1Cn1ccc2cnc(Nc3ccc(N4CCC(O)CC4)cc3)nc21)S(C)(=O)=O [Example 434] | > 1 | – | > 7.70 | > 7.70 | – | –
CC(=O)N1CCN(c2ccc(Nc3ncc4ccn(S(=O)(=O)c5cccc6cccnc56)c4n3)cc2)C[C@@H]1C [Example 449] | > 1 | – | – | > 7.70 | – | –
CN(c1ccccc1Cn1ccc2cnc(Nc3ccc(NC(=O)C(C)(C)O)cc3)nc21)S(C)(=O)=O [Example 452] | > 1 | – | – | – | > 1 | –
CC(=O)OC1CCN(c2ccc(Nc3ncc4c(n3)N(S(=O)(=O)c3cccc5cccnc35)CC4(C)C)cc2)CC1 [Example 453] | > 1 | – | – | – | – | –
CC(=O)OC1CCN(c2ccc(Nc3ncc4ccn(S(=O)(=O)c5cccc6cccnc56)c4n3)cc2)CC1 [Example 454] | > 1 | – | – | > 7.70 | – | –
CN(c1ccccc1Cn1ccc2cnc(Nc3ccc4[nH]c(=O)oc4c3)nc21)S(C)(=O)=O [Example 457] | > 1 | – | – | – | – | –
CC(=O)N1CCN(c2ccc(Nc3ncc4ccn(Cc5ccccc5N(C)S(C)(=O)=O)c4n3)cc2)C[C@H]1C [Example 458] | > 1 | – | – | > 7.70 | – | –
CC(=O)N1CCN(c2ccc(Nc3ncc4ccn(Cc5ccccc5N(C)S(C)(=O)=O)c4n3)cc2)CC1 [Example 465] | > 1 | – | > 7.70 | > 7.70 | – | –
C[C@H]1CN(c2ccc(Nc3ncc4c(n3)N(S(=O)(=O)c3cccc5cccnc35)CC4(C)C)cc2)CCN1 [Example 473] | > 1 | – | – | > 7.70 | – | –
C[C@@H]1CN(c2ccc(Nc3ncc4ccn(Cc5ccccc5N(C)S(C)(=O)=O)c4n3)cc2)CCN1C [Example 486] | > 1 | – | > 7.70 | > 7.70 | – | –
CN(c1ccccc1Cn1ccc2cnc(Nc3ccc4c(c3)OCC(=O)N4)nc21)S(C)(=O)=O [Example 539] | > 1 | – | – | > 7.70 | – | –
CN(c1ncccc1Cn1ccc2cnc(Nc3ccc(N4CCC(CO)CC4)cc3)nc21)S(C)(=O)=O [Example 559] | > 1 | – | – | – | > 1 | –
CN(c1ccccc1Cn1ccc2cnc(Nc3ccc(C4CNC(=O)CO4)cc3)nc21)S(C)(=O)=O (stereo not drawn) [Example 676] | > 1 | – | > 7.70 | – | – | –
Cc1cn(S(=O)(=O)c2cccc3cccnc23)c2nc(Nc3ccc(N4CCC(N(C)C)CC4)cc3)ncc12 [Example 712] | > 1 | – | > 7.70 | > 7.70 | – | –
CN(c1ccccc1Cn1ccc2cnc(Nc3ccc(N4CCCC(O)C4)cc3)nc21)S(C)(=O)=O (stereo not drawn) [Example 750] | > 1 | – | – | > 7.70 | – | –
CN(c1ncccc1Cn1ccc2cnc(Nc3ccc(N4CCCC(O)C4)cc3)nc21)S(C)(=O)=O (stereo not drawn) [Example 753] | > 1 | – | – | – | – | –
